Measured values: patent US20180369327A1, “METHOD FOR TREATING OR PREVENTING OSTEOARTHRITIS” (Dong-A University Research Foundation for Industry-Academy …, priority 2017, published 2018)

System: rat articular chondrocytes
Test: Cell viability assay (automated trypan blue exclusion)
Format: cell-based
Settings: n=4
Description: Rat articular chondrocytes for primary culture were isolated from knee joint cartilage slices by enzymatic digestion for 1 h with 0.2% type II collagenase (381 units/mg) in DMEM. After the isolated cells were collected by brief centrifugation, they were resuspended in DMEM supplemented with 10% (v/v) FBS, […] streptomycin and 50 units/ml penicillin (Gibco). The cells were plated on culture dishes at a density of 5×10^4 cells/cm^2. The medium was replaced every 2 days, and they reached confluence after approximately 5 days in culture. In each experiment, the cells from three animals were pooled and analyzed three times.
FFA were dissolved in absolute ethanol at a concentration of 500 mM and diluted to final concentrations of FFAs with the appropriate concentration of 1% (w/v) FFA-free BSA. Controls were incubated with equal concentrations of FFA-free BSA containing ethanol. To examine the effect of several chemicals, cells were pretreated with 150 μg/mL DRB or 30 μM cilostazol for 24 h or 25 ng/ml TNF-α for 3 h before FFA treatment.
siRNA transfection or combination treatment with FFAs. Transfection of siRNA was performed with the use of siPORT Amine and Opti-MEM media. Cells grown to a confluence of 40% to 50% in six-well plates were transfected with 100 nM final siRNA concentration per well. Transfection mixture was added to each well, and incubation occurred for 4 h. Then 2 ml of growth medium was added, and cells were incubated for another 20 h. After siRNA transfection medium was removed, each well was washed in PBS solution. Cells were treated with FFAs for 24 hours.
Recombinant adenoviral STAMP2 was prepared as described previously34. Cells (1×10^7) were infected with recombinant adenoviral STAMP2 at multiplicities of infection (MOI) of 500, 1000 and 1500 to the medium.
An automated trypan blue exclusion assay was undertaken. Total cells and trypan bluestained (i.e., nonviable) cells were counted, and the percentage of nonviable cells was calculated using the Vi-Cell cell counter (Beckman Coulter, Miami, Fla., USA).

Q: For `O=C1CCc2cc(OCCCCc3nnnn3C3CCCCC3)ccc2N1` [cilostazol], which “influence on lipotoxicity of oleate/palmitate combination (viability)” value (0.4 mM oleate with 0.6 or 1.6 mM palmitate) is on record?
A: reciprocal influences on lipotoxicity

Q: And the “effect on oleate-induced cell death (viability)” value (cilostazol pre-treatment, 1.5 mM oleate)?
A: prevented 1.5 mM oleate-induced cell death
